Reference: patent US11981660B2, “Neurite outgrowth promoters and uses thereof” (UNIVERSITY OF MIAMI, priority 2018, dated 2024)

Tested on: hippocampal neurons
Assay: Neurite outgrowth assay in cultured E18 rat hippocampal neurons (48 h, βIII-tubulin staining, Cellomics ArrayScan)
Assay type: cell-based
Conditions: Hippocampal neuron; for activity at 0.015625 µg/mL: 15.625 ng/mL compound; for activity at 0.015625 µg/mL / activity at 0.03125 µg/mL / activity at 0.0625 µg/mL / activity at 0.125 µg/mL / activity at 0.25 µg/mL / activity at 0.5 µg/mL: 48 hours, read-out: neurite growth length (% NTL); for activity at 0.03125 µg/mL: 31.25 ng/mL compound; for activity at 0.0625 µg/mL: 62.5 ng/mL compound; for activity at 0.125 µg/mL: 125 ng/mL compound; for activity at 0.25 µg/mL: 250 ng/mL compound; for activity at 0.5 µg/mL: 500 ng/mL compound; for EC200 / EC300: 48 h, estimated using linear interpolation; for EC200: 200% effective dose, read-out: ED200%; for EC300: 300% effective dose, read-out: ED300%
Method: Pre-coating culture plates: On the day before the experiment, 96-well plates were pre-coated by plating 50 μL of poly-D-lysine solution (PDL, 0.5 mg/mL) in each well. The next morning, the plates were washed four or five times with HBSS or PBS (150 μL/rinse), then left in buffer until cell plating
Preparing the cells: A timed pregnant rat carrying E18 embryos was euthanized using an IACUC approved method. In a laminar flow hood, the embryos were removed and placed in a petri dish containing Hank's Balanced Salt Solution (HBSS) with 20 mM HEPES, pH 7.3. Pup brains were dissected (see Meberg et al., Methods cell Biol 71:111-127 (2003)) and hippocampi were collected in 15 mL a conical tube containing Hibernate E with SM1 (2% v/v).
Dissociation media was prepared by combining 4.5 mL of Hibernate E (without SM1) with 0.5 mL of trypsin and 100 μl of DNAse solution. The medium over the hippocampi was carefully removed and replaced with dissociation solution, then incubated at 37° C. for 15-20 minutes, occasionally swirling the tube.
Using flame polished cotton plugged Pasteur pipettes, the dissociation media was removed, and then 5 mL of Hibernate E containing SM1 were added. The tube was swirled to thoroughly wash the tissue. The tissue was allowed to settle to the bottom of the tube, and the rinse solution was carefully removed. This step was repeated 5 times to dilute out trypsin and DNAse and remove any debris from lysed cells.
The final rinse media was removed from the tube and 1 pipette-full (1-2 mL) of Hibernate E with SM1 was added. Using the flame-polished Pasteur pipette (pre-wetted with rinse media), the tube was triturated until all cells had dissociated and no visible chunks of tissue remained. Fewer than ten triturations were typically performed. The volume was adjusted to 8-12 mL using Hibernate E containing SM1, the well was mixed and cell concentration was determined.
Plating: The cells were diluted in culture media (NbActiv4 Cell-culture media) to a final concentration of 10,000 cells/mL. The HBSS was aspirated from PDL coated plates, and 150 μL of cell solution was loaded in the middle 48 wells at 1500 cells per well. Water was loaded in the outer wells to decrease evaporation from edge wells. Cells were allowed to adhere for 2 hours in tissue culture incubator prior to treatment.
Treatment: Compounds were diluted to various concentrations to provide 6 dose response concentrations of 500 ng/mL, 250 ng/mL, 125 ng/mL, 62.5 ng/mL, 31.25 ng/mL, and 15.625 ng/mL. The plates were cultured for 48 hours, exposed to the compound at the various dose response concentrations.
Fixing the cultures: The culture medium was removed from the plates and immediately replaced with 100-200 μL of warm (37° C.) 4% paraformaldehyde (“PFA”) solution in phosphate-buffered saline (“PBS”). The cells were fixed for 15-20 minutes at room temperature, and then rinsed with PBS (200 μl/well×3).
Staining and imaging: The PBS was removed and replaced with 100 μL of blocking/permeabilization buffer (PBS, 0.2% fish gelatin, 0.03% Triton X-100, 0.02% NaN3), then incubated overnight at 4° C. To this was added 100 μL of primary antibody solution (mouse anti-Beta III tubulin in blocking buffer) and incubate overnight at 4° C. The wells were rinsed with PBS (200 μl×3), which was then removed and replaced with 100 μL of secondary antibody solution (Goat anti-mouse Alexa 488, 10 μg/ml Hoechst 33342, 0.2% fish gelatin, 0.02% azide, in PBS). The plate was shaken gently on a rotating shaker for 2 hours, then rinsed with PBS (200 μl×5).
The plate was imaged using a Cellomics ArrayScan VTI in 2 different channels for nuclear staining (Hoechst) and cell body/neurite staining (βIII-tubulin). Typically, nine fields per well were imaged with a 5× objective and automatically traced by the Neuronal Profiling Bioapplication. To get reproducible results, at least 200-300 valid neurons were measured per condition. […]

| SMILES | activity at 0.015625 µg/mL [%] | activity at 0.03125 µg/mL [%] | activity at 0.0625 µg/mL [%] | activity at 0.125 µg/mL [%] | activity at 0.25 µg/mL [%] | activity at 0.5 µg/mL [%] | EC200 [µM] | EC300 [µM] |
| --- | --- | --- | --- | --- | --- | --- | --- | --- |
| CC(C)C[C@@H]1CN(CCCC[C@H]2CNC(CCCc3ccccc3)=N2)C(=S)N1CCC1CCCCC1 [Compound A15, (R)-3-(2-cyclohexylethyl)-4-isobutyl-1-(4-((S)-2-(3-phenylpropyl)-4,5-dihydro-1H-imidazol-4-yl)butyl)imidazolidine-2-thione] | 114 | 135 | 199 | 201 | 267 | 247 | – | – |
| CCC(C)C1=N[C@@H](CCCCN2C[C@@H](CC(C)C)N(CC3CCC(C)CC3)C2=S)CN1 (stereo partly drawn) [Compound A16, (4R)-1-(4-((4S)-2-(sec-butyl)-4,5-dihydro-1H-imidazol-4-yl)butyl)-4-isobutyl-3-((4-methylcyclohexyl)methyl)imidazolidine-2-thione] | 131 | 216 | 254 | 268 | 236 | 264 | 0.01 | 0.053 |
| CC(C)C[C@@H]1CN(CCCC[C@H]2CNC(C3CCCC3)=N2)C(=S)N1CC1CCC(C)CC1 (stereo partly drawn) [Compound A17, (R)-1-(4-((S)-2-cyclopentyl-4,5-dihydro-1H-imidazol-4-yl)butyl)-4-isobutyl-3-((4-methylcyclohexyl)methyl)imidazolidine-2-thione] | 170 | 255 | 254 | 312 | 238 | 263 | 0.004 | 0.025 |
| CC(C)C[C@@H]1CN(CCCC[C@H]2CNC(CCCc3ccccc3)=N2)C(=S)N1CC1CCC(C)CC1 (stereo partly drawn) [Compound A18, (R)-4-isobutyl-3-((4-methylcyclohexyl)methyl)-1-(4-((S)-2-(3-phenylpropyl)-4,5-dihydro-1H-imidazol-4-yl)butyl)imidazolidine-2-thione] | 145 | 197 | 247 | 257 | 240 | 224 | 0.025 | 0.461 |
| CCC(C)C1=N[C@@H](CCCCN2C[C@@H](c3ccccc3)N(CCCC(C)C)C2=S)CN1 (stereo partly drawn) [Compound A19, (4R)-1-(4-((4S)-2-(sec-butyl)-4,5-dihydro-1H-imidazol-4-yl)butyl)-3-(4-methylpentyl)-4-phenylimidazolidine-2-thione] | 121 | 179 | 253 | 264 | 266 | 276 | – | – |
| CC(C)CCCN1C(=S)N(CCCC[C@H]2CNC(C3CCCC3)=N2)C[C@H]1c1ccccc1 [Compound A20, (R)-1-(4-((S)-2-cyclopentyl-4,5-dihydro-1H-imidazol-4-yl)butyl)-3-(4-methylpentyl)-4-phenylimidazolidine-2-thione] | 174 | 234 | 280 | 249 | 278 | 273 | – | – |
| CC(C)CCCN1C(=S)N(CCCC[C@H]2CNC(CCCc3ccccc3)=N2)C[C@H]1c1ccccc1 [Compound A21, (R)-3-(4-methylpentyl)-4-phenyl-1-(4-((S)-2-(3-phenylpropyl)-4,5-dihydro-1H-imidazol-4-yl)butyl)imidazolidine-2-thione] | 114 | 170 | 172 | 259 | 254 | 225 | – | – |
| CCC(C)C1=N[C@@H](CCCCN2C[C@@H](c3ccccc3)N(CCC3CCCCC3)C2=S)CN1 (stereo partly drawn) [Compound A22, (4R)-1-(4-((4S)-2-(sec-butyl)-4,5-dihydro-1H-imidazol-4-yl)butyl)-3-(2-cyclohexylethyl)-4-phenylimidazolidine-2-thione] | 139 | 201 | 257 | 246 | 222 | 228 | – | – |
| S=C1N(CCCC[C@H]2CNC(C3CCCC3)=N2)C[C@@H](c2ccccc2)N1CCC1CCCCC1 [Compound A23, (R)-3-(2-cyclohexylethyl)-1-(4-((S)-2-cyclopentyl-4,5-dihydro-1H-imidazol-4-yl)butyl)-4-phenylimidazolidine-2-thione] | 182 | 252 | 260 | 262 | 232 | 186 | 0.007 | 0.091 |
| S=C1N(CCCC[C@H]2CNC(CCCc3ccccc3)=N2)C[C@@H](c2ccccc2)N1CCC1CCCCC1 [Compound A24, (R)-3-(2-cyclohexylethyl)-4-phenyl-1-(4-((S)-2-(3-phenylpropyl)-4,5-dihydro-1H-imidazol-4-yl)butyl)imidazolidine-2-thione] | 144 | 209 | 252 | 254 | 222 | 184 | – | – |
| CCC(C)C1=N[C@@H](CCCCN2C[C@@H](c3ccccc3)N(CC3CCC(C)CC3)C2=S)CN1 (stereo partly drawn) [Compound A25, (4R)-1-(4-((4S)-2-(sec-butyl)-4,5-dihydro-1H-imidazol-4-yl)butyl)-3-((4-methylcyclohexyl)methyl)-4-phenylimidazolidine-2-thione] | 190 | 256 | 297 | 302 | 256 | 280 | 0.005 | 0.054 |
| CC1CCC(CN2C(=S)N(CCCC[C@H]3CNC(C4CCCC4)=N3)C[C@H]2c2ccccc2)CC1 (stereo partly drawn) [Compound A26, (R)-1-(4-((S)-2-cyclopentyl-4,5-dihydro-1H-imidazol-4-yl)butyl)-3-((4-methylcyclohexyl)methyl)-4-phenylimidazolidine-2-thione] | 251 | 272 | 306 | 286 | 271 | 230 | 0.002 | > 0.52 |
| CC1CCC(CN2C(=S)N(CCCC[C@H]3CNC(CCCc4ccccc4)=N3)C[C@H]2c2ccccc2)CC1 (stereo partly drawn) [Compound A27, (R)-3-((4-methylcyclohexyl)methyl)-4-phenyl-1-(4-((S)-2-(3-phenylpropyl)-4,5-dihydro-1H-imidazol-4-yl)butyl)imidazolidine-2-thione] | 185 | 174 | 238 | 269 | 245 | 221 | 0.017 | > 0.471 |
